Test results taken from US20130102631A1, “NOVEL MICROBIOCIDAL DIOXIME ETHER DERIVATIVES” (SYNGENTA CROP PROTECTION LLC, priority 2010, published 2013).

Experiments:
[1] = tested on: Puccinia recondita f. sp. tritici; assay: Puccinia recondita f. sp. tritici / wheat / leaf disc preventative (brown rust); type: in vivo; settings: foliar, wheat leaf segments cv Kanzler, inoculated 1 day after application, assessed 7-9 days after application
Procedure: Puccinia recondita f. sp. Tritici/Wheat/Leaf Disc Preventative (Brown Rust): Wheat leaf segments cultivated variety (cv) Kanzler were placed on agar in 24-well plates and sprayed with formulated test compound diluted in water at an application rate of 200 ppm. The leaf disks were inoculated with a spore suspension of the fungus 1 day after application. The inoculated leaf segments were incubated at 19° C. and 75% relative humidity under a light regime of 12/12 h (light/dark) in a climate cabinet and the activity of a compound was assessed as percent disease control compared to untreated when an appropriate level of disease damage appears in untreated check leaf segments (7-9 days after application). […]-2.508; 5.561; 2.561; 2.513; 2.559; 2.556; 2.555; 2.374; 2.544; 2.537; 2.530; 2.525 (fraction B); 2.519; 2.516; 2.514; E/E-5.167; E/E-3.002; 2.512; E/E-2.507

[2] = tested on: Mycosphaerella arachidis (Cercospora arachidicola); assay: Mycosphaerella arachidis (Cercospora arachidicola) / liquid culture (early leaf spot); type: cell-based; settings: at ≦200 ppm, liquid culture PDB, inhibition of growth photometrically 4-5 days after application, read-out: control of Mycosphaerella arachidis
Procedure: Mycosphaerella arachidis (Cercospora arachidicola)/Liquid Culture (Early Leaf Spot): Conidia of the fungus from cryogenic storage were directly mixed into nutrient broth (PDB potato dextrose broth). After placing a DMSO solution of test compound into a 96-well microtiter plate, the nutrient broth containing the fungal spores was added. The test plates are incubated at 24° C. and the inhibition of growth was determined photometrically 4-5 days after application. […]-2.509; 5.561; 2.561; P.57; 2.513; 2.559; 2.558; 2.557; 2.556; 2.555; 2.374; 2.553; 2.552; 2.551 (fraction B); 2.551 (fraction A); 2.544; 2.541; 2.539; 2.537; 2.536; 2.533; 2.532; 2.531; 2.530; 2.528; 2.526; 2.525 (fraction B); 2.525 (fraction A); 2.524; 2.520; 2.519; 2.510; 2.518; 2.517; 2.516; 2.514; […].002; 2.512; 2.511; 2.514

[3] = tested on: Mycosphaerella graminicola (Septoria tritici); assay: Mycosphaerella graminicola (Septoria tritici) / liquid culture (Septoria blotch); type: cell-based; settings: Zymoseptoria tritici; at ≦200 ppm, liquid culture PDB, inhibition of growth photometrically 4-5 days after application; read-out: control of Mycosphaerella graminicola
[4] = tested on: Gaeumannomyces graminis; assay: Gaeumannomyces graminis / liquid culture (take-all of cereals); type: cell-based; settings: at ≦200 ppm, liquid culture PDB, inhibition of growth photometrically 4-5 days after application, read-out: control of Gaeumannomyces graminis
Procedure: Gaeumannomyces graminis/Liquid Culture (Take-All of Cereals): Mycelial fragments of the fungus from cryogenic storage were directly mixed into nutrient broth (PDB potato dextrose broth). After placing a DMSO solution of test compound into a 96-well microtiter plate, the nutrient broth containing the fungal spores is added. The test plates were incubated at 24° C. and the inhibition of growth was determined photometrically 4-5 days after application. […]-2.509; 5.561; 2.561; P.57; 2.513; 2.559; 2.558; 2.557; 2.556; 2.555; 2.374; 2.553; 2.552; 2.551 (fraction B); 2.551 (fraction A); 2.539; 2.533; 2.528; 2.526; 2.525 (fraction B); 2.525 (fraction A); 2.524; 2.523; 2.521; 2.520; 2.519; 2.510; 2.518; 2.516; 2.514; E/E-5.167; E/E-3.002; 2.512; E/E-2.508

[5] = tested on: Monographella nivalis (Microdochium nivale); assay: Monographella nivalis (Microdochium nivale) / liquid culture (foot rot cereals); type: cell-based; settings: at ≦200 ppm, liquid culture PDB, inhibition of growth photometrically 4-5 days after application, read-out: control of Monographella nivalis
Procedure: Monographella nivalis (Microdochium nivale)/Liquid Culture (Foot Rot Cereals): Conidia of the fungus from cryogenic storage were directly mixed into nutrient broth (PDB potato dextrose broth). After placing a DMSO solution of test compound into a 96-well microtiter plate, the nutrient broth containing the fungal spores was added. The test plates were incubated at 24° C. and the inhibition of growth was determined photometrically 4-5 days after application. […].57; 2.513; 2.559; 2.558; 2.556; 2.555; 2.374; 2.553; 2.551 (fraction B); 2.551 (fraction A); 2.548; 2.544; 2.542; 2.541; 2.539; 2.536; 2.535; 2.533; 2.530; 2.528; 2.526; 2.525 (fraction B); 2.525 (fraction A); 2.524; 2.519; 2.518; 2.516; 2.514; E/E-5.167; 2.512; 2.514

[6] = tested on: Phaeosphaeria nodorum (Septoria nodorum); assay: Phaeosphaeria nodorum (Septoria nodorum) / wheat / leaf disc preventative (glume blotch); type: in vivo; settings: Parastagonospora nodorum, foliar, wheat leaf segments cv Kanzler, inoculated 2 days after application, assessed 5-7 days after application
Procedure: Phaeosphaeria nodorum (Septoria nodorum)/Wheat/Leaf Disc Preventative (Glume Blotch): Wheat leaf segments cv Kanzler were placed on agar in a 24-well plate and sprayed with formulated test compound diluted in water at an application rate of 200 ppm. The leaf disks are inoculated with a spore suspension of the fungus 2 days after application. The inoculated test leaf disks are incubated at 20° C. and 75% relative humidity under a light regime of 12/12 h (light/dark) in a climate cabinet and the activity of a compound is assessed as percent disease control compared to untreated when an appropriate level of disease damage appears in untreated check leaf disks (5-7 days after application). […]-2.508; 5.561; 2.561; E/E-2.208; P.57; 2.513; 2.559; 2.558; 2.557; 2.556; 2.555; 2.374; 2.544; 2.541; 2.539; 2.537; 2.536; 2.535; 2.533; 2.530; 2.526; 2.519; 2.510; 2.516; 2.514; E/E-5.167; E/E-3.002; 2.512

[7] = tested on: Pyrenophora teres; assay: Pyrenophora teres / barley / leaf disc preventative (net blotch); type: in vivo; settings: foliar, barley leaf segments cv Hasso, inoculated two days after application, assessed 5-7 days after application
Procedure: Pyrenophora teres/Barley/Leaf Disc Preventative (Net Blotch): Barley leaf segments cv Hasso are placed on agar in a 24-well plate and sprayed with formulated test compound diluted in water at an application rate of 200 ppm. The leaf segments are inoculated with a spore suspension of the fungus two days after application of the test solution. The inoculated leaf segments are incubated at 20° C. and 65% relative humidity under a light regime of 12/12 h (light/dark) in a climate cabinet and the activity of a compound is assessed as disease control compared to untreated when an appropriate level of disease damage appears in untreated check leaf segments (5-7 days after application). […]-2.507; 5.561; 2.561; E/E-2.208; P.57; 2.513; 2.559; 2.558; 2.556; 2.555; 2.374; 2.552; 2.544; 2.537; 2.533; 2.530; 2.528; 2.519; 2.510; 2.516; 2.514; E/E-5.167; E/E-3.002; 2.512

[8] = tested on: Glomerella lagenarium; assay: Glomerella lagenarium (Colletotrichum lagenarium) / liquid culture (anthracnose); type: cell-based; settings: Colletotrichum orbiculare; at ≦200 ppm, liquid culture PDB, inhibition of growth photometrically 3-4 days after application; read-out: control of Glomerella lagenarium
Procedure: Glomerella lagenarium (Colletotfichum lagenarium)/Liquid Culture (Anthracnose): Conidia of the fungus from cryogenic storage were directly mixed into nutrient broth (PDB potato dextrose broth). After placing a DMSO solution of test compound into a 96-well microtiter, the nutrient broth containing the fungal spores was added. The test plates were incubated at 24° C. and the inhibition of growth is measured photometrically 3-4 days after application. […]-2.509; 5.561; 2.561; E/E-2.208; P.57; 2.513; 2.559; 2.556; 2.555; 2.374; 2.552; 2.548; 2.544; 2.541; 2.540; 2.539; 2.537; 2.536; 2.533; 2.531; 2.530; 2.528; 2.526; 2.519; 2.510; 2.516; 2.514; E/E-5.167; E/E-3.002; 2.512; 2.514; Z/E-2.474

[9] = tested on: Blumeria graminis f. sp. tritici (Erysiphe graminis f. sp. tritici); assay: Blumeria graminis f. sp. tritici / wheat / leaf disc preventative (powdery mildew on wheat); type: in vivo; settings: foliar, wheat leaf segments cv. Kanzler, inoculated 1 day after application, assessed 6-8 days after application
Procedure: Blumeria graminis f. sp. tritici (Erysiphe graminis f. sp. tritici)/Wheat/Leaf Disc Preventative (Powdery Mildew on Wheat):
Wheat leaf segments cv. Kanzler were placed on agar in a 24-well plate and sprayed with the formulated test compound diluted in water at an application rate of 200 ppm. The leaf disks were inoculated by shaking powdery mildew infected plants above the test plates 1 day after application. The inoculated leaf disks were incubated at 20° C. and 60% relative humidity under a light regime of 24 h darkness followed by 12 h/12 h (dark/light) in a climate chamber and the activity of a compound was assessed as percent disease control compared to untreated when an appropriate level of disease damage appears on untreated check leaf segments (6-8 days after application). The following compounds gave at least 80% control of Blumeria graminis: E/E-2.168, E/E-2.474, E/E-2.002; 5.561; 2.561; E/E-2.208; 2.513; 2.559; 2.557; 2.556; 2.555; 2.374; 2.552; 2.537; 2.533; 2.530; 2.528; 2.526; 2.519; 2.510; 2.516; 2.514; E/E-5.167; E/E-3.002; 2.512; 2.511

[10] = tested on: Puccinia recondita f. sp. tritici; assay: Puccinia recondita f. sp. tritici / wheat / leaf disc curative (brown rust); type: in vivo; settings: foliar, wheat leaf segments cv Kanzler, 200 ppm applied 1 day after inoculation, assessed 6-8 days after application
Procedure: Puccinia recondita f. sp. tritici/Wheat/Leaf Disc Curative (Brown Rust): Wheat leaf segments cv Kanzler were placed on agar in 24-well plates. The leaf segments were inoculated with a spore suspension of the fungus. The plates were stored in darkness at 19° C. and 75% relative humidity. The formulated test compound diluted in water was applied at an application rate of 200 ppm 1 day after inoculation. […]-2.508; 5.561; 2.561; E/E-2.208; 2.513; 2.559; 2.556; 2.555; 2.374; 2.552; 2.537; 2.519; 2.516; 2.514; […].002; 2.512; E/E-2.507

CC/C(=N/OCC(C)(C)CO/N=C1\CCCc2ccc(C)nc21)c1ncc(Cl)cc1F (single isomer, unassigned) [2.525 (fraction B)]
≥ 80%: pest or weed control at 200 ppm [1] | inhibition of growth at up to 200 µg/mL [2] | inhibition of growth at up to 200 µg/mL [3] | inhibition of growth at up to 200 µg/mL [4] | inhibition of growth at up to 200 µg/mL [5]

Cc1ccc2c(n1)/C(=N/OCC(C)(C)CO/N=C(\c1ccccc1)c1ccccn1)CCC2 [Compound 2.510]
≥ 80%: pest or weed control at 200 ppm [6] | pest or weed control at 200 ppm [7] | inhibition of growth at up to 200 µg/mL [8] | inhibition of growth at up to 200 µg/mL [2] | inhibition of growth at up to 200 µg/mL [3] | inhibition of growth at up to 200 µg/mL [4] | pest or weed control at 200 ppm [9]

Cc1ccc2c(n1)/C(=N/OCC(C)(C)CO/N=C/c1cccc(CO)n1)CCC2 [Compound 2.528]
≥ 80%: pest or weed control at 200 ppm [7] | inhibition of growth at up to 200 µg/mL [8] | inhibition of growth at up to 200 µg/mL [2] | inhibition of growth at up to 200 µg/mL [3] | inhibition of growth at up to 200 µg/mL [4] | inhibition of growth at up to 200 µg/mL [5] | pest or weed control at 200 ppm [9]

Cc1ccc2c(n1)/C(=N/OCC(C)(C)CO/N=C(\c1ccncc1)c1ccccn1)CCC2 [Compound 2.537]
≥ 80%: pest or weed control at 200 ppm [1] | pest or weed control at 200 ppm [10] | pest or weed control at 200 ppm [6] | pest or weed control at 200 ppm [7] | inhibition of growth at up to 200 µg/mL [8] | inhibition of growth at up to 200 µg/mL [2] | inhibition of growth at up to 200 µg/mL [3] | pest or weed control at 200 ppm [9]

C/C(=N\OCC(C)(C)CO/N=C1\CCCc2ccc(C)nc21)c1cccc(-c2ccccc2Cl)n1 [Compound 2.544]
≥ 80%: pest or weed control at 200 ppm [1] | pest or weed control at 200 ppm [6] | pest or weed control at 200 ppm [7] | inhibition of growth at up to 200 µg/mL [8] | inhibition of growth at up to 200 µg/mL [2] | inhibition of growth at up to 200 µg/mL [3] | inhibition of growth at up to 200 µg/mL [5]

Cc1ccc2c(n1)/C(=N/OCC(C)(C)CO/N=C/c1ncc(Cl)cc1F)CCC2 [Compound 2.552]
≥ 80%: pest or weed control at 200 ppm [10] | pest or weed control at 200 ppm [7] | inhibition of growth at up to 200 µg/mL [8] | inhibition of growth at up to 200 µg/mL [2] | inhibition of growth at up to 200 µg/mL [3] | inhibition of growth at up to 200 µg/mL [4] | pest or weed control at 200 ppm [9]

C/C(=N\OCC(C)(C)CO/N=C1\CCCc2c(C)cc(CF)nc21)c1cc(C)cc(C)n1 [E/E-2.208]
≥ 80%: pest or weed control at 200 ppm [10] | pest or weed control at 200 ppm [6] | pest or weed control at 200 ppm [7] | inhibition of growth at up to 200 µg/mL [8] | pest or weed control at 200 ppm [9]

C/C(=N\OCC(C)(O)CO/N=C1\CCCc2ccc(C)nc21)c1cccc(C)n1 (stereo not drawn) [E/E-14.002]
≥ 80%: pest or weed control at 200 ppm [10] | inhibition of growth at up to 200 µg/mL [2]
